Assay results from patent publication US12630534B2 (TAKEDA PHARMACEUTICAL COMPANY LIMITED, priority 2020, dated 2026).

Target: T1, human GPR139 (Homo sapiens, UniProt Q6DWJ6)
T1 construct: expressed in transfected cells; host or cells: CHO-TREx (Life Technologies) cells, expression induced with doxycycline
T1 sequence (Q6DWJ6 1-353): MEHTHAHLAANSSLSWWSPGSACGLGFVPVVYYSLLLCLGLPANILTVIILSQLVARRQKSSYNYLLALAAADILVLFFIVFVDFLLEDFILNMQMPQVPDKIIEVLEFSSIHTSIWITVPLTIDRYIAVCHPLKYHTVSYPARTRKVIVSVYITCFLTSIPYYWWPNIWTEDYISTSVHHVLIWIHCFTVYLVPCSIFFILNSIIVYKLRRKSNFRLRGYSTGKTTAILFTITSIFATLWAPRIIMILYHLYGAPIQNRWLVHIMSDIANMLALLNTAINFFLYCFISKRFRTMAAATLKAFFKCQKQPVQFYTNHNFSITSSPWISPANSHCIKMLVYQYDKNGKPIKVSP
Test: Inhibition rate of the amount of IP1 in GPR139-expressed CHO cells (inverse agonist assay, Test Example 2)
Type: cell-based
Conditions: CHO, relative value, inhibition rate of Example Compound 2 in Test Example 1 defined as 100%
Procedure: The measurement of IP1 was made using an IP-ONE HTFR assay kit (cis-bio) and CHO-TREx (Life Technologies) cells stably transfected with GPR139. The CHO-TREx cells expressed human GPR139 with a tetracycline-inducing element. The cells were cultured in a medium containing F12K and 10% tetracycline-free FBS, and the expression of human GPR139 was induced over the course of 17 hours under conditions of 37° C. and 5% CO2 in the presence of 2 μg/mL of doxycycline (Clontech, 631311) in the growth medium on the day before assay. On the day of the test, after the cells were washed with 10 mL of PBS, the cells were detached with TrypLE Express (Life Technologies) and centrifuged at 1,000 rpm to form pellets, and a cell suspension was then prepared using a stimulation buffer (cis-bio, included in the IP-ONE HTRF assay kit).
The compound was diluted with the stimulation buffer, and 4 μL was added to a 384-well white assay plate (Greiner). The cell suspension was added so that there were 2000 cells per well, and the assay plate was left to stand for 40 minutes at 37° C. Equal amounts of IP1-d2 and Ab-Crp solutions (both available from cis-bio, included in the IP-ONE HTRF assay kit) prepared with a lysis buffer (cis-bio, included in the IP-ONE HTRF assay kit) were mixed, and 4 μL was added to the assay plate and left to stand for one hour at room temperature. After the fluorescence strengths of two wavelengths were measured by the HTRF settings of Envision (PerkinElmer), the value of Ratio={(Signal 665 nm)/(Signal 615 nm)}×10000 was calculated.
Measurement of the Inhibition Rate of the Amount of IP1 in GPR139-Expressed CHO Cells (Inverse Agonist Assay)
The activities of the compounds of Examples 1 and 3 to 167 were expressed as relative values in Table 2 by measuring the inhibition rate of the amount of IP1 with the same method as in Test Example 1 and defining the inhibition rate of the amount of IP1 of Example Compound 2 in Test Example 1 as […].

| SMILES | inhibition at 30 µM [%] |
| --- | --- |
| CCn1cc(Cn2ccn(-c3cc(-c4ccc(F)cc4)cc(C(F)(F)F)c3)c2=O)cn1 [Example 1, 1-[(1-Ethyl-1H-pyrazole-4-yl)methyl]-3-[4′-fluoro-5-(trifluoromethyl)[1,1′-biphenyl]-3-yl]-1,3-dihydro-2H-imidazole-2-one] | 99 |
| CCn1cc(Cn2cc(C)n(-c3cc(-c4ccc(F)cc4)cc(C(F)(F)F)c3)c2=O)cn1 [Example 3, 1-[(1-ethyl-1H-pyrazol-4-yl)methyl]-3-[4′-fluoro-5-(trifluoromethyl)[1,1′-biphenyl]-3-yl]-4-methyl-1,3-dihydro-2H-imidazol-2-one] | 101 |
| CCn1cc(Cn2cc(C)n(-c3cc(N4CCO[C@H](C)C4)cc(C(F)(F)F)c3F)c2=O)cn1 [Example 4, 1-[(1-ethyl-1H-pyrazol-4-yl)methyl]-3-{2-fluoro-5-[(2R)-2-methylmorpholin-4-yl]-3-(trifluoromethyl)phenyl}-4-methyl-1,3-dihydro-2H-imidazol-2-one] | 102 |
| CCn1cc(Cn2cc(C)n(-c3cc(Oc4ccc(F)cc4)cc(C(F)(F)F)c3)c2=O)cn1 [Example 5, 1-[(1-ethyl-1H-pyrazol-4-yl)methyl]-3-[3-(4-fluorophenoxy)-5-(trifluoromethyl)phenyl]-4-methyl-1,3-dihydro-2H-imidazol-2-one] | 99 |
| CCn1cc(Cn2cc(C)n(-c3cc(OC4CCOCC4)cc(C(F)(F)F)c3)c2=O)cn1 [Example 6, 1-[(1-ethyl-1H-pyrazol-4-yl)methyl]-4-methyl-3-{3-[(oxan-4-yl)oxy]-5-(trifluoromethyl)phenyl}-1,3-dihydro-2H-imidazol-2-one] | 102 |
| CCn1cc(Cn2cc(C)n(-c3cc(OCC4CC(F)(F)C4)cc(C(F)(F)F)c3)c2=O)cn1 [Example 7, 3-{3-[(3,3-difluorocyclobutyl)methoxy]-5-(trifluoromethyl)phenyl}-1-[(1-ethyl-1H-pyrazol-4-yl)methyl]-4-methyl-1,3-dihydro-2H-imidazol-2-one] | 102 |
| CCn1cc(Cn2ccn(-c3cc(N4CCO[C@H](C)C4)cc(C(F)(F)F)c3C)c2=O)cn1 [Example 8, 1-[(1-ethyl-1H-pyrazol-4-yl)methyl]-3-{2-methyl-5-[(2R)-2-methylmorpholin-4-yl]-3-(trifluoromethyl)phenyl}-1,3-dihydro-2H-imidazol-2-one] | 101 |
| CCn1cc(C(C)n2ccn(-c3cc(N4CCO[C@H](C)C4)cc(C(F)(F)F)c3F)c2=O)cn1 (stereo partly drawn) [Example 9, 1-[1-(1-ethyl-1H-pyrazol-4-yl)ethyl]-3-{2-fluoro-5-[(2R)-2-methylmorpholin-4-yl]-3-(trifluoromethyl)phenyl}-1,3-dihydro-2H-imidazol-2-one] | 102 |
| CCn1cc(Cn2ccn(-c3cc(N(C)C4CCOCC4)cc(C(F)(F)F)c3F)c2=O)cn1 [Example 10, 1-[(1-ethyl-1H-pyrazol-4-yl)methyl]-3-{2-fluoro-5-[methyl(oxan-4-yl)amino]-3-(trifluoromethyl)phenyl}-1,3-dihydro-2H-imidazol-2-one] | 100 |
| CCn1cc(Cn2ccn(-c3cc(N4CCO[C@@H](C)C4)cc(C(F)(F)F)c3F)c2=O)cn1 [Example 11, 1-[(1-ethyl-1H-pyrazol-4-yl)methyl]-3-{2-fluoro-5-[(2S)-2-methylmorpholin-4-yl]-3-(trifluoromethyl)phenyl}-1,3-dihydro-2H-imidazol-2-one] | 98 |
| CCn1cc(Cn2ccn(-c3cc(N4CCOC(C)(C)C4)cc(C(F)(F)F)c3F)c2=O)cn1 [Example 12, 1-[5-(2,2-dimethylmorpholin-4-yl)-2-fluoro-3-(trifluoromethyl)phenyl]-3-[(1-ethyl-1H-pyrazol-4-yl)methyl]-1,3-dihydro-2H-imidazol-2-one] | 98 |
| CCn1ncc(Cn2ccn(-c3cc(N4CCO[C@H](C)C4)cc(C(F)(F)F)c3F)c2=O)c1C [Example 13, 1-[(1-ethyl-5-methyl-1H-pyrazol-4-yl)methyl]-3-{2-fluoro-5-[(2R)-2-methylmorpholin-4-yl]-3-(trifluoromethyl)phenyl}-1,3-dihydro-2H-imidazol-2-one] | 101 |
| CCn1cc(Cn2cc(C)n(-c3cc(N4CCO[C@H](C)C4)cc(C(F)(F)F)c3)c2=O)cn1 [Example 14, 1-[(1-ethyl-1H-pyrazol-4-yl)methyl]-4-methyl-3-{3-[(2R)-2-methylmorpholin-4-yl]-5-(trifluoromethyl)phenyl}-1,3-dihydro-2H-imidazol-2-one] | 99 |
| CCn1cc(Cn2ccn(-c3cc(N4CCO[C@H](C)C4)cc(C(F)(F)F)c3Cl)c2=O)cn1 [Example 15, 1-{2-chloro-5-[(2R)-2-methylmorpholin-4-yl]-3-(trifluoromethyl)phenyl}-3-[(1-ethyl-1H-pyrazol-4-yl)methyl]-1,3-dihydro-2H-imidazol-2-one] | 101 |
| CCn1cc(Cn2c(C)c(C)n(-c3cc(N4CCO[C@H](C)C4)cc(C(F)(F)F)c3)c2=O)cn1 [Example 16, 1-[(1-ethyl-1H-pyrazol-4-yl)methyl]-4,5-dimethyl-3-(3-[(2R)-2-methylmorpholin-4-yl]-5-(trifluoromethyl)phenyl}-1,3-dihydro-2H-imidazol-2-one] | 100 |
| CCn1cc(Cn2cc(C)n(-c3cc(OCC4CC4)cc(C(F)(F)F)c3)c2=O)cn1 [Example 17, 3-[3-(cyclopropylmethoxy)-5-(trifluoromethyl)phenyl]-1-[(1-ethyl-1H-pyrazol-4-yl)methyl]-4-methyl-1,3-dihydro-2H-imidazol-2-one] | 99 |
| CCn1cc(Cn2cc(C)n(-c3cc(C(F)(F)F)cc(N4CCO[C@H](C)C4)n3)c2=O)cn1 [Example 18, 1-[(1-Ethyl-1H-pyrazole-4-yl)methyl]-4-methyl-3-{6-[(2R)-2-methylmorpholine-4-yl]-4-(trifluoromethyl)pyridine-2-yl}-1,3-dihydro-2H-imidazole-2-one] | 101 |
| CCn1cc(Cn2cc(C)n(-c3cc(N4CCC(F)(F)CC4)cc(C(F)(F)F)c3)c2=O)cn1 [Example 19, 3-[3-(4,4-difluoropiperidin-1-yl)-5-(trifluoromethyl)phenyl]-1-[(1-ethyl-1H-pyrazol-4-yl)methyl]-4-methyl-1,3-dihydro-2H-imidazol-2-one] | 100 |
| CCn1cc(Cn2cc(C)n(-c3cc(N4CCOC(C(F)F)C4)cc(C(F)(F)F)c3)c2=O)cn1 (centres unmarked) [Example 20, 3-{3-[2-(difluoromethyl)morpholin-4-yl]-5-(trifluoromethyl)phenyl}-1-[(1-ethyl-1H-pyrazol-4-yl)methyl]-4-methyl-1,3-dihydro-2H-imidazol-2-one] | 99 |
| CCn1cc(Cn2cc(C)n(-c3cc(-n4cnc(C)c4)cc(C(F)(F)F)c3)c2=O)cn1 [Example 21, 1-[(1-ethyl-1H-pyrazol-4-yl)methyl]-4-methyl-3-[3-(4-methyl-1H-imidazol-1-yl)-5-(trifluoromethyl)phenyl]-1,3-dihydro-2H-imidazol-2-one] | 99 |
| CCn1cc(Cn2cc(C)n(-c3cc(OCC4CC4(F)F)cc(C(F)(F)F)c3)c2=O)cn1 (centres unmarked) [Example 22, 3-{3-[(2,2-difluorocyclopropyl)methoxy]-5-(trifluoromethyl)phenyl}-1-[(1-ethyl-1H-pyrazol-4-yl)methyl]-4-methyl-1,3-dihydro-2H-imidazol-2-one] | 100 |
| CCn1cc(Cn2cc(C)n(-c3cc(N4C[C@@H](C)O[C@@H](C)C4)cc(C(F)(F)F)c3)c2=O)cn1 [Example 23, 3-{3-[(2R,6S)-2,6-dimethylmorpholin-4-yl]-5-(trifluoromethyl)phenyl}-1-[(1-ethyl-1H-pyrazol-4-yl)methyl]-4-methyl-1,3-dihydro-2H-imidazol-2-one] | 100 |
| CCn1cc(Cn2cc(C)n(-c3cc(N4CCC(F)(F)C4)cc(C(F)(F)F)c3)c2=O)cn1 [Example 24, 3-[3-(3,3-difluoropyrrolidin-1-yl)-5-(trifluoromethyl)phenyl]-1-[(1-ethyl-1H-pyrazol-4-yl)methyl]-4-methyl-1,3-dihydro-2H-imidazol-2-one] | 100 |
